Reference: paper PMC10683472, “Deep Learning-Driven Library Design for the De Novo Discovery of Bioactive Thiopeptides” (ACS Central Science, 2023)
Read-outs that look alike come from different tables or passages of the source. *1 amine or outer side, *2 acyl side, *3 side chain or, on linkers, in order; H or OH if unused. Where a SMILES comes first, the peptide text is derived from it. Where no end group is shown, it is not given here. [ ]: non-standard residue; d: D form. hGln = L-homoglutamine, NC(=O)CCC[C@H](N[*:1])C(=O)[*:2]; pyridine‑bisazole = not defined here; Nle = CCCC[C@H](N)C(=O)O; Dhb = C/C=C(\N)C(=O)O

What was measured:
[1] = target: T1, Biotinylated IRAK4 (kinase domain, amino acids 1-460; NP_057207.2) (Homo sapiens, UniProt Q9NWZ3); experiment: Surface plasmon resonance binding to IRAK4
T1 construct: acids 1-460; NP_057207.2) was purchased from Carna Biosciences; purchased Carna Biosciences (Kobe, Japan)
T1 sequence (Q9NWZ3 1-460): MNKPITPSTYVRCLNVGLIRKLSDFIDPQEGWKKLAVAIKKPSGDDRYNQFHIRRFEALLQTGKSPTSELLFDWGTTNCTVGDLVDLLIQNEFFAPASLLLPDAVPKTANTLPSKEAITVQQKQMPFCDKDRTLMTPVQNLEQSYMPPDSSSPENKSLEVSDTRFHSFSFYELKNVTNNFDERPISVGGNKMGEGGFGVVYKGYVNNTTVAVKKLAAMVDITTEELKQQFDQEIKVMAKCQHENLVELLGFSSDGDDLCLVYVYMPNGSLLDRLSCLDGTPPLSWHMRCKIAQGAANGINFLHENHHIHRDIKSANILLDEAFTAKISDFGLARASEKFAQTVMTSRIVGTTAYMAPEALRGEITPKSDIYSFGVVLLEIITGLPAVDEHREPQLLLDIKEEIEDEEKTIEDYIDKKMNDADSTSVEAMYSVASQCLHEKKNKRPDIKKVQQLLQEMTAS
Excerpt: Reagents were purchased from Nacalai Tesque, Wako Pure Chemical Industries, Sigma-Aldrich Japan, or TCI Chemicals and were used as received. Biotinylated IRAK4 (kinase domain, amino acids 1-460; NP_057207.2) was purchased from Carna Biosciences (Kobe, Japan). Recombinant human TLR10 Fc Chimera protein (extracellular domain, amino acid 20-576; Q9BXR5) was purchased from R&D system (#6619-TR-050). Anti-HA magnetic beads were from Pierce Thermo Fisher Scientific (#88836). Magnetic beads with immobilized streptavidin were from Invitrogen (Dynabeads Streptavidin C1, # 65001). Magnetic beads with immobilized streptavidin were from Invitrogen (Dynabeads Streptavidin M280, #11206D).
Protein purification and synthesis of Streptomyces lactacystinaeus tRNAGlu were done as previously described.1–3 Protein concentration measurements were carried out on a Nanodrop 2000c spectrophotometer (Thermo Scientific) equipped with a 5 mm pathlength quartz cuvette using extinction coefficient values calculated with ExPASy ProtParam tool (https://web.expasy.org/protparam).
Biochemical measurements (sections 2.10 – 2.14) were performed in triplicate or more. Most experiments were reproduced to an analogous outcome at least once. In the cases where the determination of biophysical parameters involved cell assay (CP50 and IC50), reported are standard errors of the fit; otherwise, error bars are standard deviations.
RNA extracted from the gel with 300 mM NaCl were collected by ethanol precipitation followed by centrifugation (15300 g for 15 min) and dissolved in water for storage. tRNAini was aminoacylated with eFx using biotin-Phe-CME as a substrate. tRNAini (25 µM) and eFx (25 µM) were incubated with biotin-Phe-CME (5 mM) in HEPES-KOH buffer (50 mM; pH 7.5) containing 600 mM MgCl2 on ice for 2 h. The reactions were stopped with the addition of 300 mM NaOAc (pH 5.2), and precipitated with ethanol. Precipitated RNA was recovered by centrifugation (15300 g for 15 min). The pellet was washed with 70% ethanol in water (v/v) containing 100 mM NaOAc (pH 5.2) and used in translation.
2.10. Surface plasmon resonance
Binding affinities between the thiopeptides and IRAK4/TLR10 were measured with a Biacore 8K instrument (GE Healthcare) at 25 °C. The assay buffer for IRAK4 binding analysis contained 50 mM Tris (pH 7.5), 150 mM NaCl, 10 mM MgCl2, 0.05% (v/v) tween-20 and 0.1% (v/v) DMSO. The […]
Biotinylated IRAK4 was immobilized on a Biacore CAP chip (GE Healthcare) to a surface density […]
step was allowed to proceed for 480 s. Kinetic parameters and affinities of the interaction were […]
provided by the manufacturer. The interaction sensorgrams were measured as single -cycle […]
Kinetic parameters and affinities of the
Evaluation Software v.3.0 (GE Healthcare).

Serum stability assay = type: in vitro ADME; conditions: human serum, 37 °C, LC/MS; for half-life at 10 µM: pH 7.6, read-out: serum stability τ1/2 (converted)
Method: Next, we tested the metabolic stability of the discovered thiopeptides. The compounds were incubated in human serum at 37 °C in the presence of an internal control, and the amounts of the remaining analytes were quantified by LC/MS (Figures S27 and 28). […] At the other extreme, IR11 rapidly degraded in human serum with τ1/2 = 0.5 h. […]
Kinetic parameters and affinities of the […]
2.12. Thiopeptide metabolic stability experiments
The mixtures were stirred
well and transferred to a 37 °C thermostat. […]

IRAK4 [2] = target: T2, IRAK4 (Homo sapiens, UniProt Q9NWZ3); experiment: Single-round mRNA display binding assay (qPCR), IRAK4; set-up: acids 1-460; NP_057207.2) was purchased from Carna Biosciences; purchased Carna Biosciences (Kobe, Japan); conditions: ratio of cDNA recoveries (qPCR), IRAK4 pulldown over beads only, single-round selection
T2 sequence (Q9NWZ3 1-460): T1 sequence (Q9NWZ3 1-460)

IRAK4 [3] = target: T2, IRAK4; experiment: mRNA display affinity selection against IRAK4, NGS abundance; type: binding; set-up: acids 1-460; NP_057207.2) was purchased from Carna Biosciences; purchased Carna Biosciences (Kobe, Japan); conditions: IRAK4 selection, NGS abundance rank
IRAK4 [4] = target: T2, IRAK4; experiment: biochemical
THP1-XBlue cells = experiment: Cell viability with Cell Counting Kit-8; conditions: at the tested concentrations
Method: 2.13. NF-kB signaling pathway inhibition assay
THP-1 Cellular Assay. THP1-XBlue cells containing an NF-kB-inducible secreted embryonic alkaline phosphatase (SEAP) reporter gene (InvivoGen) were seeded to 96-well assay plates (10^5 cells/well) with RPMI 1640 culture medium containing 10% fetal calf serum. The cells were pre-treated with various concentration of analyte thiopeptide inhibitor in 0.1% DMSO and incubated at 37 °C for 6 h. LPS-EK (30 ng/mL, InvivoGen) was subsequently added to activate the NF-kB signalling for 20 h. To quantitate SEAP activity, supernatants were harvested (300 g, 5min) and mixed with Quanti-Blue (InvivoGen) detection reagent following the manufacturer’s instructions.
Cells were assayed with cell counting kit-8 in parallel to rule out potential cytotoxicity. The plates

[5] = target: T3, interleukin-1 receptor-associated kinase 4 (UniProt Q9NWZ3 1-460); experiment: SPR; surface plasmon resonance of synthetic thiopeptides on their target protein; conditions in S.I. 2.10 (not shown); conditions: both partners purified
T3 construct: interleukin-1 receptor-associated kinase 4 (IRAK4); also called IRAK4; IRAK4 kinase
T3 sequence (looked up): T1 sequence (Q9NWZ3 1-460)

[6] = target: T4, interleukin-1 receptor-associated kinase 4 (UniProt Q9NWZ3 1-460); experiment: cell-based or functional assay
T4 sequence (looked up): T1 sequence (Q9NWZ3 1-460)

C=C1NC(=O)[C@H](CCCCN)NC(=O)[C@H](Cc2c[nH]c3ccccc23)NC(=O)[C@H]([C@@H](C)O)NC(=O)[C@H](CCCNC(=N)N)NC(=O)[C@H](CCCNC(=N)N)NC(=O)[C@H](CCCCN)NC(=O)[C@H](Cc2c[nH]c3ccccc23)NC(=O)[C@H](CCCC(N)=O)NC(=O)[C@H](CC(C)C)NC(=O)[C@H]([C@@H](C)O)NC(=O)[C@H](Cc2c[nH]c3ccccc23)NC(=O)c2ccc(-c3nc(C(=O)OC)cs3)nc2-c2csc1n2 [IR8] (HELM PEPTIDE1{W.T.L.[O=C([C@H](CCCC(=O)[*:3])N[*:1])[*:2]].W.K.R.R.T.W.K}|PEPTIDE2{[am]}|CHEM1{[C=C(N[*:2])c1nc(-c2nc(-c3nc(C(=O)OC)cs3)ccc2C(=O)[*:1])cs1]}$PEPTIDE1,PEPTIDE2,4:R3-1:R1|PEPTIDE1,CHEM1,1:R1-1:R1|PEPTIDE1,CHEM1,11:R2-1:R2$$$V2.0; bridges inferred) gave a koff [1] of 0.027 s⁻¹, a kon [1] of 1.24e+06 M⁻¹ s⁻¹ and a half-life at 10 µM (Serum stability assay) of 42 ± 4.8 min. For the same molecule, the “display P/N ratio” value (IRAK4 [2]) was 152, the “rank in pulldown(+)” value (IRAK4 [3]) was 9 and the “rank in pulldown(–)” value (IRAK4 [3]) was 9.

In the case of C=C1NC(=O)[C@H](Cc2c[nH]cn2)NC(=O)[C@@H]2CCCN2C(=O)[C@H](CCCNC(=N)N)NC(=O)[C@H](CCCNC(=N)N)NC(=O)[C@H](CCCNC(=N)N)NC(=O)[C@H](C)NC(=O)[C@H](Cc2c[nH]c3ccccc23)NC(=O)[C@H](Cc2ccc(O)cc2)NC(=O)[C@H](CC(C)C)NC(=O)[C@H](CO)NC(=O)[C@H](CCSC)NC(=O)[C@H](C)NC(=O)[C@H](Cc2c[nH]c3ccccc23)NC(=O)c2ccc(-c3nc(C(=O)OC)cs3)nc2-c2csc1n2 [IR11] (HELM PEPTIDE1{W.A.M.S.L.Y.W.A.R.R.R.P.H}|CHEM1{[C=C(N[*:2])c1nc(-c2nc(-c3nc(C(=O)OC)cs3)ccc2C(=O)[*:1])cs1]}$PEPTIDE1,CHEM1,1:R1-1:R1|PEPTIDE1,CHEM1,13:R2-1:R2$$$V2.0), the koff ([1]; SPR, IRAK4, read-out: koff) is reported as 0.0021 s⁻¹, the kon ([1]; SPR, IRAK4, read-out: kon) is reported as 783 M⁻¹ s⁻¹ and the “serum stability τ1/2” value (Serum stability assay) is reported as 0.5 h. The half-life at 10 µM (Serum stability assay) was 30 ± 2.4 min, the IC50 (IRAK4 [4]) was 4100 ± 300 nM and the “display P/N ratio” value (IRAK4 [2]) was 1072. For the same molecule, the “rank in pulldown(+)” value (IRAK4 [3]) was 30 and the “rank in pulldown(–)” value (IRAK4 [3]) was 15.

For CC[C@@H]1[C@H](F)C(=O)N[C@@H]1COc1nccc2cc(C(N)=O)c(OC)cc12 [PF-06650833, 1-{[(2S,3S,4S)-3-Ethyl-4-fluoro-5-oxopyrrolidin-2-yl]methoxy}-7-methoxyisoquinoline-6-carboxamide, reference compound], the “cytotoxicity (Cell Counting Kit-8)” value (THP1-XBlue cells) was “not cytotoxic”.

B1: thiopeptide IR1 (synthetic) (peptide)
chain: SWS[Nle]KRQFITWHW[Dhb]SCSC
modifications: bridge (positions not given here) via pyridine‑bisazole; reading uncertain; also: macrocycle closed through pyridine-bisazole moiety, oxazole to thiazole change
Work on B1 yielded a Kd [5] of 230 nM.

B2: thiopeptide IR1 (synthetic) (peptide)
chain: SWS[Nle]KRQFITWHW[Dhb]SCSC
modifications: bridge (positions not given here) via pyridine‑bisazole; not fully specified; reading uncertain; also: dehydroamino acids, macrocycle with pyridine-bisazole moiety, oxazole to thiazole mutation
With B2 the “IC50, lipopolysaccharide-induced NF-κB signaling (secreted alkaline phosphatase reporter) in THP1-XBlue monocytes” value [6] was 7000 nM.

B3: thiopeptide IR11 (synthetic) (peptide)
chain: SWAMSLYWARRRPHSCSC
modifications: bridge (positions not given here) via pyridine‑bisazole; reading uncertain; also: macrocycle closed through pyridine-bisazole moiety, oxazole to thiazole change
In the case of B3, the Kd [5] is reported as 2700 nM.

B4: thiopeptide IR8 (synthetic) (peptide)
chain: SWTL[hGln]WKRRTWKSCSC
modifications: bridge (positions not given here) via pyridine‑bisazole; reading uncertain; also: macrocycle closed through a pyridine-bisazole moiety, oxazole to thiazole change
B4 gave a Kd [5] of 22 nM.
